Species: Rattus norvegicus
Experiment: Open TG-GATES - Regimen: Single
Assay type: toxicity, organism-based, Sprague-Dawley
Parameters: regimen Single, gender Male, age 6 weeks
Conditions: in vivo, po, 30 mg/kg, route gavage, dose level Middle; for APTT / Bas / Eos / Fbg / Hb / Ht / Lym / MCH / MCHC / MCV / Mono / Neu / PT / Plat / RBC / Ret / WBC: tissue Blood; for KIDNEY_L / KIDNEY_R / KIDNEY_TOTAL: tissue Kidney; for LIVER: tissue Liver; for A/G / ALP / ALT / AST / BUN / CRE / Ca / Cl / DBIL / GLC / IP / K / LDH / Na / PL / RALB / TBIL / TC / TG / TP / gamma-GTP: tissue Plasma

## CCCc1cc(=O)[nH]c(=S)[nH]1 [PROPYLTHIOURACIL]
3 h
  TERMINAL_BW: 179.8 g
  APTT: 16 s
  Bas: 0%
  Eos: 1%
  Fbg: 211.4 mg/dL
  Hb: 13.2 g/dL
  Ht: 40%
  Lym: 80.2%
  MCH: 22.2 pg
  MCHC: 33%
  MCV: 67.2 fL
  Mono: 5.6%
  Neu: 13.6%
  PT: 12.8 s
  Plat: 100.4 x10_4/uL
  RBC: 595.4 x10_4/ul
  Ret: 10.1%
  WBC: 101.6 x10_2/uL
  KIDNEY_L: 0.8 g
  KIDNEY_R: 0.8 g
  KIDNEY_TOTAL: 1.7 g
  LIVER: 8.4 g
  A/G: 2
  ALP: 1017.6 IU/L
  ALT: 32.6 IU/L
  AST: 65.4 IU/L
  BUN: 12 mg/dL
  CRE: 0.4 mg/dL
  Ca: 11.2 mg/dL
  Cl: 105.2 meq/L
  DBIL: 0.042 mg/dL
  GLC: 193.6 mg/dL
  IP: 10.8 mg/dL
  K: 4.4 meq/L
  LDH: 86.6 IU/L
  Na: 138.2 meq/L
  PL: 135 mg/dL
  RALB: 3.6 g/dL
  TBIL: 0.3 mg/dL
  TC: 77.2 mg/dL
  TG: 30.6 mg/dL
  TP: 5.5 g/dL
  gamma-GTP: 1.2 IU/L
6 h
  TERMINAL_BW: 177.6 g
  APTT: 16.2 s
  Bas: 0%
  Eos: 1%
  Fbg: 208.8 mg/dL
  Hb: 13.2 g/dL
  Ht: 39.3%
  Lym: 77.2%
  MCH: 22.2 pg
  MCHC: 33.5%
  MCV: 66.3 fL
  Mono: 6.8%
  Neu: 15.2%
  PT: 12.7 s
  Plat: 107.3 x10_4/uL
  RBC: 593.4 x10_4/ul
  Ret: 10.5%
  WBC: 83.3 x10_2/uL
  KIDNEY_L: 0.8 g
  KIDNEY_R: 0.9 g
  KIDNEY_TOTAL: 1.7 g
  LIVER: 8.1 g
  A/G: 2
  ALP: 892.6 IU/L
  ALT: 31.8 IU/L
  AST: 63.8 IU/L
  BUN: 12.8 mg/dL
  CRE: 0.5 mg/dL
  Ca: 11.2 mg/dL
  Cl: 105 meq/L
  DBIL: 0.062 mg/dL
  GLC: 182 mg/dL
  IP: 10.8 mg/dL
  K: 4.9 meq/L
  LDH: 89.6 IU/L
  Na: 138.4 meq/L
  PL: 127.4 mg/dL
  RALB: 3.7 g/dL
  TBIL: 0.3 mg/dL
  TC: 70.4 mg/dL
  TG: 36.4 mg/dL
  TP: 5.5 g/dL
  gamma-GTP: 1.8 IU/L
9 h
  TERMINAL_BW: 178.7 g
  APTT: 15.7 s
  Bas: 0%
  Eos: 1.6%
  Fbg: 216 mg/dL
  Hb: 13.3 g/dL
  Ht: 40%
  Lym: 73.4%
  MCH: 22.1 pg
  MCHC: 33.2%
  MCV: 66.6 fL
  Mono: 8.2%
  Neu: 17%
  PT: 12.7 s
  Plat: 102.7 x10_4/uL
  RBC: 601.2 x10_4/ul
  Ret: 9.8%
  WBC: 64.5 x10_2/uL
  KIDNEY_L: 0.9 g
  KIDNEY_R: 0.9 g
  KIDNEY_TOTAL: 1.7 g
  LIVER: 7.5 g
  A/G: 1.9
  ALP: 878.2 IU/L
  ALT: 30.4 IU/L
  AST: 61.6 IU/L
  BUN: 12.2 mg/dL
  CRE: 0.5 mg/dL
  Ca: 10.5 mg/dL
  Cl: 106.4 meq/L
  DBIL: 0 mg/dL
  GLC: 194.2 mg/dL
  IP: 10.6 mg/dL
  K: 4.7 meq/L
  LDH: 92.4 IU/L
  Na: 138.8 meq/L
  PL: 131 mg/dL
  RALB: 3.6 g/dL
  TBIL: 0.5 mg/dL
  TC: 77.6 mg/dL
  TG: 33.8 mg/dL
  TP: 5.5 g/dL
  gamma-GTP: 1 IU/L
24 h
  TERMINAL_BW: 189 g
  APTT: 16 s
  Bas: 0%
  Eos: 1%
  Fbg: 206.6 mg/dL
  Hb: 13.6 g/dL
  Ht: 40.7%
  Lym: 78%
  MCH: 21.9 pg
  MCHC: 33.5%
  MCV: 65.2 fL
  Mono: 9%
  Neu: 12.4%
  PT: 12.3 s
  Plat: 101.4 x10_4/uL
  RBC: 623.4 x10_4/ul
  Ret: 9.1%
  WBC: 101.7 x10_2/uL
  KIDNEY_L: 0.9 g
  KIDNEY_R: 0.9 g
  KIDNEY_TOTAL: 1.7 g
  LIVER: 9.5 g
  A/G: 2
  ALP: 911.4 IU/L
  ALT: 40.8 IU/L
  AST: 65 IU/L
  BUN: 16.8 mg/dL
  CRE: 0.5 mg/dL
  Ca: 11 mg/dL
  Cl: 106.8 meq/L
  DBIL: 0.018 mg/dL
  GLC: 185.4 mg/dL
  IP: 7.1 mg/dL
  K: 5 meq/L
  LDH: 90.6 IU/L
  Na: 139.8 meq/L
  PL: 157.4 mg/dL
  RALB: 3.8 g/dL
  TBIL: 0.3 mg/dL
  TC: 85.2 mg/dL
  TG: 112 mg/dL
  TP: 5.7 g/dL
  gamma-GTP: 1.2 IU/L

Reference: ChEMBL document CHEMBL3885861, “Open TG-GATES”
